Consider six compounds from US5358947A, “Angiotensin II receptor blocking 2,3-substituted pyrazolo[1,5-a]-1,3,5-triazin-4(3H)-ones” (American Cyanamid Company, priority 1993, dated 1994).

Usually pIC50 stands for −log10 of the IC50, conventionally taken in molar units. The low end stands for a high IC50, the high end for a low IC50.

pIC50: −log10 of the molar value. Where a name gives a salt, the structure may show the parent alone.

The experiment concerns the target T1, Angiotensin II Receptor (Bos taurus, UniProt P25104).
T1 construct: The brownish tissue forming the adrenal cortex is scraped off and finely minced with scissors before homogenization; tissue local slaughter house (Maxwell-Cohen); host or cells: beef adrenal cortex, microsomal membranes (100,000×g pellet)
T1 sequence (P25104 1-359): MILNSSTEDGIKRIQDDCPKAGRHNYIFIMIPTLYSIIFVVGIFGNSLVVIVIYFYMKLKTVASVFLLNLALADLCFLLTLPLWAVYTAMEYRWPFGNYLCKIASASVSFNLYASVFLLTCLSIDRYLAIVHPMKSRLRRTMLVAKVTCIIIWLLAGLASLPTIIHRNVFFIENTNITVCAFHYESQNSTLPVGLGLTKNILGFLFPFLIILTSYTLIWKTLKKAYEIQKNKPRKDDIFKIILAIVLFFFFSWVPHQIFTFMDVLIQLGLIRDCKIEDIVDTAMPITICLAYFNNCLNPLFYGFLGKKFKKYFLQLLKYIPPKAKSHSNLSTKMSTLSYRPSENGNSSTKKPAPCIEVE
In words: Angiotensin II receptor binding assay ([125I](Sar1,Ile8)AngII displacement, beef adrenal cortex membranes). Particulars: 60 minutes, room temperature. The text has this: Beef adrenals are obtained from a local slaughter house (Maxwell-Cohen). [^125 I](Sar^1,Ile^8)AngII, S.A. 2200 Ci/mmole, is purchased from Dupont (NEN®, Boston, Mass.). all unlabeled AngII analogs, Dimethylsulfoxide (DMSO), nucleotides, bovine serum albumin (BSA) are purchased from Sigma Chemical Co , St Louis, Mo. U.S.A.
Approximately sixteen (16) to twenty (20) beef adrenal glands are processed as follows: fresh adrenal glands received on crushed ice are cleaned of fatty tissues and the tough membranes encapsulating the glands are removed and discarded. The brownish tissue forming the adrenal cortex is scraped off and finely minced with scissors before homogenization. Care is taken to avoid contamination with medullary tissue during dissection. The scraped cortices are suspended in twenty volumes of an ice-cold buffer medium consisting of 10 mM Tris.HCl (pH 7.4 at 22° C.) and containing 1.0 mM EDTA and 0.2M sucrose. Unless otherwise indicated, all subsequent operations are done at 4° C. The tissue is homogenized in a glass homogenizer with a motor driven teflon pestle with a clearance of 1.0 mm. The homogenate is centrifuged first at low speed (3,000×g) for 10 minutes. The resulting pellet is discarded and the supernatant fluid recentrifuged at 10,000×g of 15 minutes to give a P2 pellet. This P2 pellet is discarded and the liquid phase is carefully decanted off in clean centrifuge tubes and recentrifuged at high speed (100,000×g) for 60 minutes. The translucent final pellet is harvested and combined in a small volume (20-50.0 ml) of 50.0 mM Tris.HCl buffer, pH 7.2. A 100 ul aliquot is withdrawn and the protein content of the preparation is determined by the Lowry's method (Lowry, O. H., Rosebrough, N. F., Farr, A. L. and Randall, R. J., Protein measurement with Folin phenol reagent. J. Biol. Chem., […], 265-275, 1951). The pelleted membrane is reconstituted in 50.0 mM Tris.HCl buffer containing 0.1 mM of phenylmethylsulfonyl fluoride (PMSF) to give approximately a protein concentration of 2.5 mg per ml of tissue suspension. The membrane preparation is finally aliquoted in 1.0 ml volumes and stored at -70° C. until use in the binding assays.
Binding of[^125 I](Sar^1,Ile^8)AngII
The binding of [^125 I](Sar^1 Ile^8)AngII to microsomal membranes is initiated by the addition of reconstituted membranes (1:10 vols.) in freshly made 50.0 mMTris.HCl buffer, pH 7.4 containing 0.25% heat inactivated bovine serum albumin (BSA): 80 ul membrane protein (10 to 20 ug/assay) to wells already containing 100 ul of incubatin buffer (as described above) and 20 ul [^125 I](Sar^1,Ile^8)AngII (Specific Activity 2200 Ci/mmole). Non-specific binding is measured in the presence of 1.0 uM unlabeled (Sar^1,Ile^8)AngII, added in 20 ul volume. Specific binding for [^125 I](Sar^1, Ile^8)AngII is greater than 90% In competition studies, experimental compounds are diluted in dimethylsulfoxide (DMSO) and added in 20 ul to wells before the introduction of tissue membranes. This concentration of DMSO is found to have no negative effects on the binding of [^125 I](Sar^1, Ile^8)AngII to the membranes. Assays are performed in triplicate. The wells are left undisturbed for 60 minutes at room temperature. Following incubation, all wells are harvested at once with a Brandel® Harvester especially designed for a 96 well plate (Brandel®Biomedical Research & Development Labs. Inc., Gaithersburg, Md., U.S.A.). The filter discs are washed with 10×1.0 ml of cold 0.9% NaCl to remove unbound ligand. […] This method is routinely used. The filters are removed from the filter grid and counted in a Parkard® Cobra Gamma Counter for 1 minute. (Packard Instrument Co., Downers Grove, Ill., U.S.A.). The binding data are analyzed by the non-linear interactive "LUNDON-1" program (LUNDON SOFTWARE Inc., Cleveland, Ohio U.S.A.). […]
In turn, `CCCCc1nc2ccnn2c(=O)n1Cc1ccc(-c2ccccc2-c2nn[nH]n2)cc1` [Example 21, 2-Butyl-3-[[2'-(1H-tetrazol-5-yl)-[[1,1'-biphenyl]-4-yl]methyl]-pyrazolo[1,5-a]-1,3,5-triazin-4(3H)-one potassium salt] gave a pIC50 of 5.52.
`CCCCc1nc2cc(-c3ccc(F)cc3)nn2c(=O)n1Cc1ccc(-c2ccccc2-c2nnn[nH]2)cc1` [Example 12, 2-Butyl-7-(4-fluorophenyl)-3-[[2'-(1H-tetrazol-5-yl)[1,1'-biphenyl]-4-yl]methyl]pyrazolo[1,5-a]-1,3,5-triazin-4(3H)-one] had a negative-log IC50 (pIC50) of 7.20. Compared with the last compound, the pIC50 is 1.68 log units higher.
As to `CCCCc1nc2cc(-c3ccccc3)nn2c(=O)n1Cc1ccc(-c2ccccc2-c2nnn[nH]2)cc1` [Example 10, 2-Butyl-7-phenyl-3-[[2'-(1H-tetrazol-5-yl)[1,1'-biphenyl]-4-yl]methyl]pyrazolo[1,5-a]-1,3,5-triazin-4(3H)-one], the pIC50 was 6.12.
With `CCCCc1nc2ccnn2c(=O)n1Cc1ccc(-c2ccccc2-c2nn[nH]n2)cc1` [Example 17, 2-Butyl-3-[[2'-(1H-tetrazol-5-yl)[1,1'-biphenyl]-4-yl]methyl]pyrazolo[1,5-a]-1,3,5-triazin-4(3H) -one], the pIC50 was 5.92.
`CCCCc1nc2c(Br)cnn2c(=O)n1Cc1ccc(-c2ccccc2-c2nn[nH]n2)cc1` [Example 20] showed a pIC50 of 5.40.
Compound `CCCCc1nc2cc(-c3ccco3)nn2c(=O)n1Cc1ccc(-c2ccccc2-c2nnn[nH]2)cc1` [Example 11, 2-Butyl-7-(2-furanyl)-3-[[2'-(1H-tetrazol-5-yl)[1,1'-biphenyl]-4-yl]methyl]pyrazolo[1,5-a]-1,3,5-triazin-4(3H)-one] gave a pIC50 of 6.17.
